Experimental data taken from US6706663B2, “Herbicidal 3-heterocyclic substituted benzisothiazole and benzisoxazole compounds” (Wyeth, priority 2000, dated 2004).

Experiments:
[1] = tested on: ABUTH (Abutilon theophrasti); experiment: Postemergence herbicidal evaluation; format: in vivo, Medic.; conditions: for ABUTH herbicidal rating: postemergence
Method in brief: (§1)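 Seedlings grown about two weeks in flats, sprayed, then kept under standard greenhouse care. Rated visually 4–5 weeks after treatment on a 0–9 scale (stand, vigour, malformation, size, chlorosis, overall appearance) relative to untreated control; repeat tests averaged.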

[2] = tested on: IPOHE (Ipomoea hederacea); experiment: Postemergence herbicidal evaluation; format: in vivo, (L.) Jacq.; conditions: for IPOHE herbicidal rating: postemergence
Method in brief: as §1

[3] = tested on: TRZAWR (Wheat, Winter, cv Riband); experiment: Preemergence herbicidal evaluation; format: in vivo, Triticum aestivum; conditions: rated 4-5 weeks after treatment
Method in brief: (§2)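 Visual 0–9 rating versus control (stand, vigor, malformation, size, chlorosis, overall appearance), scored four to five weeks post-treatment. Preemergence spray of aqueous acetone solution onto freshly seeded soil cups; plants grown under conventional greenhouse care.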

[4] = tested on: ECHCG (Echinochloa crus-galli); experiment: Preemergence herbicidal evaluation; format: in vivo, (L.) Beau; conditions: rated 4-5 weeks after treatment
Method in brief: as §2

SETVI (Setaria viridis) = experiment: Preemergence herbicidal evaluation; format: in vivo, (L.) Beau; conditions: rated 4-5 weeks after treatment
Method in brief: as §2

GALAP (Galium aparine) [5] = experiment: Preemergence herbicidal evaluation; format: in vivo; conditions: rated 4-5 weeks after treatment
Method in brief: as §2

[6] = tested on: GLXMAW (Soybean, Williams); experiment: Postemergence herbicidal evaluation; format: in vivo, Glycine max, (L.) Merr. cv Williams; conditions: for GLXMAW herbicidal rating: postemergence
Method in brief: as §1

GLXMA (Soybean) = experiment: Preemergence herbicidal evaluation; format: in vivo, Glycine max, (L.) Merr.; conditions: rated 4-5 weeks after treatment
GALAP (Galium aparine) [7] = experiment: Postemergence herbicidal evaluation; format: in vivo; conditions: for GALAP herbicidal rating: postemergence
Method in brief: as §1

ZEAMX (Corn, Field) = experiment: Postemergence herbicidal evaluation; format: in vivo, Zea mays, L.; conditions: for ZEAMX herbicidal rating: postemergence
Method in brief: as §1

[8] = tested on: CASOB (Cassia obtusifolia); experiment: Postemergence herbicidal evaluation; format: in vivo, L.; conditions: for CASOB herbicidal rating: postemergence
Method in brief: as §1

[9] = tested on: AMBEL (Ambrosia artemisifolia); experiment: Postemergence herbicidal evaluation; format: in vivo, L.; conditions: for AMBEL herbicidal rating: postemergence
Method in brief: as §1

[10] = tested on: CHEAL (Chenopodium album); experiment: Postemergence herbicidal evaluation; format: in vivo, L.; conditions: for CHEAL herbicidal rating: postemergence
Method in brief: as §1

ORYSAT (Rice, Tebonnet) [11] = experiment: Postemergence herbicidal evaluation; format: in vivo, Oryza sativa, (L.) Tebonnet; conditions: for ORYSAT herbicidal rating: postemergence
Method in brief: as §1

ORYSAT (Rice, Tebonnet) [12] = experiment: Preemergence herbicidal evaluation; format: in vivo, Oryza sativa, (L.) Tebonnet; conditions: rated 4-5 weeks after treatment
[13] = preemergence, rate 0.0620 kg/ha
[14] = preemergence, rate 0.1250 kg/ha
[15] = preemergence, rate 0.2500 kg/ha

Cn1c(C(F)(F)F)cc(=O)n(-c2ccc3snc(C4OCCO4)c3c2)c1=O [Compound 45, 3-[3-(1,3-dioxolan-2-yl)-1,2-benzisothiazol-5-yl]-1-methyl-6-(trifluoromethyl)uracil]
Postemergence herbicidal rating, ABUTH ([1]; rate 0.0320 kg/ha): 9.0 | Postemergence herbicidal rating, ABUTH ([1]; rate 0.0620 kg/ha): 9.0 | Postemergence herbicidal rating, IPOHE ([2]; rate 0.0320 kg/ha): 9.0 | Postemergence herbicidal rating, IPOHE ([2]; rate 0.0620 kg/ha): 9.0 | Preemergence herbicidal rating TRZAWR ([3]; Rate 0.0620 kg/ha): 9.0 | Preemergence herbicidal rating TRZAWR ([3]; Rate 0.1250 kg/ha): 9.0 | Preemergence herbicidal rating TRZAWR ([3]; Rate 0.2500 kg/ha): 9.0 | Preemergence herbicidal rating ECHCG ([4]; Rate 0.0620 kg/ha): 9.0 | Preemergence herbicidal rating ECHCG ([4]; Rate 0.1250 kg/ha): 9.0 | Preemergence herbicidal rating ECHCG ([4]; Rate 0.2500 kg/ha): 9.0 | Preemergence herbicidal rating SETVI (SETVI (Setaria viridis); Rate 0.0620 kg/ha): 9.0 | Preemergence herbicidal rating SETVI (SETVI (Setaria viridis); Rate 0.1250 kg/ha): 9.0 | Preemergence herbicidal rating SETVI (SETVI (Setaria viridis); Rate 0.2500 kg/ha): 9.0 | Preemergence herbicidal rating GALAP (GALAP (Galium aparine) [5]; Rate 0.0620 kg/ha): 7.0 | Preemergence herbicidal rating GALAP (GALAP (Galium aparine) [5]; Rate 0.1250 kg/ha): 9.0 | Preemergence herbicidal rating GALAP (GALAP (Galium aparine) [5]; Rate 0.2500 kg/ha): 9.0 | Postemergence herbicidal rating, GLXMAW ([6]; rate 0.0320 kg/ha): 8.8 | Postemergence herbicidal rating, GLXMAW ([6]; rate 0.0620 kg/ha): 8.8 | Preemergence herbicidal rating GLXMA (GLXMA (Soybean); Rate 0.0620 kg/ha): 9.0 | Preemergence herbicidal rating GLXMA (GLXMA (Soybean); Rate 0.1250 kg/ha): 9.0 | Preemergence herbicidal rating GLXMA (GLXMA (Soybean); Rate 0.2500 kg/ha): 9.0 | Postemergence herbicidal rating, GALAP (GALAP (Galium aparine) [7]; rate 0.0320 kg/ha): 8.5 | Postemergence herbicidal rating, GALAP (GALAP (Galium aparine) [7]; rate 0.0620 kg/ha): 9.0 | Postemergence herbicidal rating, ZEAMX (ZEAMX (Corn, Field); rate 0.0320 kg/ha): 5.5 | Postemergence herbicidal rating, ZEAMX (ZEAMX (Corn, Field); rate 0.0620 kg/ha): 6.0 | Postemergence herbicidal rating, CASOB ([8]; rate 0.0320 kg/ha): 5.0 | Postemergence herbicidal rating, CASOB ([8]; rate 0.0620 kg/ha): 9.0 | Postemergence herbicidal rating, AMBEL ([9]; rate 0.0320 kg/ha): 9.0 | Postemergence herbicidal rating, AMBEL ([9]; rate 0.0620 kg/ha): 9.0 | Postemergence herbicidal rating, CHEAL ([10]; rate 0.0320 kg/ha): 8.5 | Postemergence herbicidal rating, CHEAL ([10]; rate 0.0620 kg/ha): 9.0 | Postemergence herbicidal rating, ORYSAT (ORYSAT (Rice, Tebonnet) [11]; rate 0.0320 kg/ha): 4.3 | Postemergence herbicidal rating, ORYSAT (ORYSAT (Rice, Tebonnet) [11]; rate 0.0620 kg/ha): 5.2 | Preemergence herbicidal rating ORYSAT (ORYSAT (Rice, Tebonnet) [12]; Rate 0.0620 kg/ha): 8.7 | Preemergence herbicidal rating ORYSAT (ORYSAT (Rice, Tebonnet) [12]; Rate 0.1250 kg/ha): 9.0 | Preemergence herbicidal rating ORYSAT (ORYSAT (Rice, Tebonnet) [12]; Rate 0.2500 kg/ha): 9.0

CSCC1COC(c2nsc3ccc(-n4c(=O)cc(C(F)(F)F)n(C)c4=O)cc23)O1 (centres unmarked) [Compound 84, 1-methyl-3-[3-[4-[(methylthio)methyl]-1,3-dioxolan-2-yl]-1,2-benzisothiazol-5-yl]-6-(trifluoromethyl)uracil]
ABUTH herbicidal rating ([1]; rate 0.0320 kg/ha): 9.0 | ABUTH herbicidal rating ([1]; rate 0.0620 kg/ha): 9.0 | ABUTH herbicidal rating ([1]; rate 0.1250 kg/ha): 9.0 | IPOHE herbicidal rating ([2]; rate 0.0320 kg/ha): 9.0 | IPOHE herbicidal rating ([2]; rate 0.0620 kg/ha): 9.0 | IPOHE herbicidal rating ([2]; rate 0.1250 kg/ha): 9.0 | Preemergence herbicidal rating TRZAWR [3, 13]: 2.0 | Preemergence herbicidal rating TRZAWR [3, 14]: 5.0 | Preemergence herbicidal rating ECHCG [4, 13]: 4.0 | Preemergence herbicidal rating ECHCG [4, 14]: 6.7 | Preemergence herbicidal rating ECHCG [4, 15]: 9.0 | Preemergence herbicidal rating SETVI (SETVI (Setaria viridis); [13]): 3.5 | Preemergence herbicidal rating SETVI (SETVI (Setaria viridis); [14]): 7.5 | Preemergence herbicidal rating SETVI (SETVI (Setaria viridis); [15]): 9.0 | Preemergence herbicidal rating GALAP (GALAP (Galium aparine) [5]; [13]): 7.0 | Preemergence herbicidal rating GALAP (GALAP (Galium aparine) [5]; [14]): 8.0 | Preemergence herbicidal rating GALAP (GALAP (Galium aparine) [5]; [15]): 9.0 | GLXMAW herbicidal rating ([6]; rate 0.0320 kg/ha): 8.5 | GLXMAW herbicidal rating ([6]; rate 0.0620 kg/ha): 9.0 | GLXMAW herbicidal rating ([6]; rate 0.1250 kg/ha): 9.0 | Preemergence herbicidal rating GLXMA (GLXMA (Soybean); [13]): 9.0 | Preemergence herbicidal rating GLXMA (GLXMA (Soybean); [14]): 9.0 | Preemergence herbicidal rating GLXMA (GLXMA (Soybean); [15]): 9.0 | GALAP herbicidal rating (GALAP (Galium aparine) [7]; rate 0.0320 kg/ha): 6.5 | GALAP herbicidal rating (GALAP (Galium aparine) [7]; rate 0.0620 kg/ha): 7.5 | GALAP herbicidal rating (GALAP (Galium aparine) [7]; rate 0.1250 kg/ha): 9.0 | ZEAMX herbicidal rating (ZEAMX (Corn, Field); rate 0.0320 kg/ha): 4.8 | ZEAMX herbicidal rating (ZEAMX (Corn, Field); rate 0.0620 kg/ha): 6.0 | ZEAMX herbicidal rating (ZEAMX (Corn, Field); rate 0.1250 kg/ha): 8.5 | CASOB herbicidal rating ([8]; rate 0.0320 kg/ha): 7.0 | CASOB herbicidal rating ([8]; rate 0.0620 kg/ha): 7.0 | CASOB herbicidal rating ([8]; rate 0.1250 kg/ha): 9.0 | AMBEL herbicidal rating ([9]; rate 0.0320 kg/ha): 7.5 | AMBEL herbicidal rating ([9]; rate 0.0620 kg/ha): 9.0 | AMBEL herbicidal rating ([9]; rate 0.1250 kg/ha): 9.0 | CHEAL herbicidal rating ([10]; rate 0.0320 kg/ha): 9.0 | CHEAL herbicidal rating ([10]; rate 0.0620 kg/ha): 9.0 | CHEAL herbicidal rating ([10]; rate 0.1250 kg/ha): 9.0 | ORYSAT herbicidal rating (ORYSAT (Rice, Tebonnet) [11]; rate 0.0320 kg/ha): 5.3 | ORYSAT herbicidal rating (ORYSAT (Rice, Tebonnet) [11]; rate 0.0620 kg/ha): 6.5 | ORYSAT herbicidal rating (ORYSAT (Rice, Tebonnet) [11]; rate 0.1250 kg/ha): 9.0 | Preemergence herbicidal rating ORYSAT (ORYSAT (Rice, Tebonnet) [12]; [13]): 2.5 | Preemergence herbicidal rating ORYSAT (ORYSAT (Rice, Tebonnet) [12]; [14]): 3.5 | Preemergence herbicidal rating ORYSAT (ORYSAT (Rice, Tebonnet) [12]; [15]): 6.0
